IC50 data for 20 compounds are collected here from patent US20230113037A1 (Bayer Aktiengesellschaft, priority 2019, published 2023).

As a reminder, the IC50 is the point on the concentration scale where inhibition reaches its midpoint.

In assay [1] the target is T1, AHR (Homo sapiens, UniProt P35869).
T1 construct: U87 MG glioblastoma cells (ATCC #HTB-14) endogenously expressing AHR; endogenous in cells; host or cells: U87 MG glioblastoma cells (ATCC #HTB-14)
T1 sequence (P35869 11-848): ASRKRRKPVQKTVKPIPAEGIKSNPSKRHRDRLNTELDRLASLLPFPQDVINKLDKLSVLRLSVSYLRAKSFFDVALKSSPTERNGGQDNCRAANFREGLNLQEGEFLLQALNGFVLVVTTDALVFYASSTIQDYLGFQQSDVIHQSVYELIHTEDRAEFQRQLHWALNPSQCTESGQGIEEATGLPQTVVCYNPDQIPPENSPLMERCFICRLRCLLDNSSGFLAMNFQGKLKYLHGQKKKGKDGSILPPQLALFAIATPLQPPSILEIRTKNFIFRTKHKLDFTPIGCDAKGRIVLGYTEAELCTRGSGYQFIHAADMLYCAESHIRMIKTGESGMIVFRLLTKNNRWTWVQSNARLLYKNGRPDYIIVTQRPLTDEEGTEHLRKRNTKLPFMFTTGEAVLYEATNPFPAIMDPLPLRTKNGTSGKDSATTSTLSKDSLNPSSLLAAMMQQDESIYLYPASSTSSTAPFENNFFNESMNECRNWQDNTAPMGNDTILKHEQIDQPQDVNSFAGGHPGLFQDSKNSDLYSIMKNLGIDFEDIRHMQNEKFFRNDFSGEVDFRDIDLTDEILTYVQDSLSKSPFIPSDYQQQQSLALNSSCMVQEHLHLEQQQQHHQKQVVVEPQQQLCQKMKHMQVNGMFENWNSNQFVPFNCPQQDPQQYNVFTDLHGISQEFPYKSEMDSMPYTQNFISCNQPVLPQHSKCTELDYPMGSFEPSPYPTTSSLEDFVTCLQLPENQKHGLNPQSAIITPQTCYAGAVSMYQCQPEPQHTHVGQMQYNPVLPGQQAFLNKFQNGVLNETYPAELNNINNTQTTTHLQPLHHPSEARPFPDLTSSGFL
Put plainly: In vitro assay 1: antagonism in human cell line (AHR transactivation, firefly luciferase reporter, kynurenic acid prestimulated). The following applies: AHR Antagonism Human IC50 [M]. It is filed as cell-based. An outline of the steps: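 Antagonism measured as loss of kynurenic acid-driven firefly luciferase from DRE reporter in stably transfected U87 MG cells; constitutive Renilla signal monitors cytotoxicity. Positive/negative control normalization, staurosporine 5 μM with 150 μM kynurenic acid as inhibition control; replicates given as mean or median.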
For orientation: In a reporter assay the amount or activity of a reporter protein is the signal.

Assay [2] deals with T2, AHR (Mus musculus, UniProt P30561).
T2 sequence (P30561 1-848 P471L/N533S/M589L): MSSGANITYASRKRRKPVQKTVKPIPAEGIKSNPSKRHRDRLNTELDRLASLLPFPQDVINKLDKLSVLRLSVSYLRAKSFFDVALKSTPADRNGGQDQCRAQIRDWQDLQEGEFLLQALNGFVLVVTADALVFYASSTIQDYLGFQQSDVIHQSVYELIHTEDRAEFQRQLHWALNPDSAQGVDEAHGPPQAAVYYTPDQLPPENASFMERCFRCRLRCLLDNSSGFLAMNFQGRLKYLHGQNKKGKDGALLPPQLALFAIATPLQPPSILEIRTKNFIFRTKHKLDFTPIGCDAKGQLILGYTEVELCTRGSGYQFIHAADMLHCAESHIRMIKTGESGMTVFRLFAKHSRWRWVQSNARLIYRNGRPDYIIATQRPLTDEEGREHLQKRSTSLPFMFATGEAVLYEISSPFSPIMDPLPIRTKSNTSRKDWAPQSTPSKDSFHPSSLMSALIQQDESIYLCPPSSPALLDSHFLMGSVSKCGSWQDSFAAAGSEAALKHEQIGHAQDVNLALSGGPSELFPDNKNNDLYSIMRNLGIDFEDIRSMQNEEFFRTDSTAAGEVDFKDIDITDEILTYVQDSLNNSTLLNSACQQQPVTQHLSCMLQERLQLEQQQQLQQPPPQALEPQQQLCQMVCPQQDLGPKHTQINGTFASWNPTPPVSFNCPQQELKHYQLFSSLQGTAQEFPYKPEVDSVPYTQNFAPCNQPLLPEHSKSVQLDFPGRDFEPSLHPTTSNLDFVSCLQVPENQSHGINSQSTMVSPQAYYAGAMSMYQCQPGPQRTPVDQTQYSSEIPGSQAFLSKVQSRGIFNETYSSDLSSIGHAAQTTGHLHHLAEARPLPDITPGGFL
Put plainly: In vitro assay 3: antagonism in mouse cell line (AHR transactivation, firefly luciferase reporter, kynurenic acid prestimulated). It counts as cell-based. The following applies: 200 μM kynurenic acid, 20 hours, read-out: AHR Antagonism Mouse IC50. An outline of the steps:
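Kynurenic acid-prestimulated mouse reporter cells; stable AHR-inducible firefly luc construct with DRE sites in promoter. No-agonist wells = positive inhibition ctrl. Luminescence normalized to pos/neg ctrls; n>1 reported as mean or median.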

Where [3] appears, read: Hepa 1c1c7 cells, firefly luciferase reporter.

Like-named read-outs stand apart in the source and are kept apart here.

For the compound `CC[C@@H](Nc1nc2ccccc2c2nc(-c3ccc(OC)cc3)nn12)C(N)=O` [Example 379, (2R)-2-{[2-(4-methoxyphenyl)[1,2,4]triazolo[1,5-c]quinazolin-5-yl]amino}butanamide], the half-inhibitory concentration (IC50) in assay [1] was determined as 7.6e-10 M; in assay [2] (mouse Hepa 1c1c7 cells), 0.993 nM.
Turning to `COc1ccc(-c2nc3c4ccccc4nc(N[C@H](C)C(=O)NCCN4CCCCC4)n3n2)cc1` [Example 897, N^2-[2-(4-methoxyphenyl)[1,2,4]triazolo[1,5-c]quinazolin-5-yl]-N-[2-(piperidin-1-yl)ethyl]-D-alaninamide], the IC50 in assay [1] (firefly luciferase reporter) was 4.02e-08 M; in assay [2] (setting [3]), 28.5 nM.
Consider `CC(C)n1cc(-c2nc3c4cccc(C#N)c4nc(N[C@@H]4CCCCNC4=O)n3n2)cn1` [Example 760, 5-{[(3R)-2-oxoazepan-3-yl]amino}-2-[1-(propan-2-yl)-1H-pyrazol-4-yl][1,2,4]triazolo[1,5-c]quinazoline-7-carbonitrile], for which the results for the IC50 in assay [1] and in assay [2] (mouse Hepa 1c1c7 cells) were 3.6e-09 M and 10 nM, respectively.
In the case of `COCCNC(=O)[C@H](Nc1nc2c(Br)cccc2c2nc(-c3ccc(OC)cc3)nn12)C(C)C` [Example 923, N^2-[7-bromo-2-(4-methoxyphenyl)[1,2,4]triazolo[1,5-c]quinazolin-5-yl]-N-(2-methoxyethyl)-D-valinamide], the results for the half-inhibitory concentration (IC50) in assay [1] (firefly luciferase reporter) and in assay [2] (setting [3]) were 3.26e-09 M and 2.13 nM, respectively.
In the case of `COc1cccc(-c2nc3c4ccccc4nc(NC4CNCCNC4=O)n3n2)c1` (single isomer, unassigned) [Example 116, 6-{[2-(3-methoxyphenyl)[1,2,4]triazolo[1,5-c]quinazolin-5-yl]amino}-1,4-diazepan-5-one], the values for the concentration for half-maximal inhibition (IC50) in assay [1] and in assay [2] (mouse Hepa 1c1c7 cells) were 2.75e-06 M and 73.3 nM, respectively.
With `Cc1sccc1-c1nc2c3ccccc3nc(N[C@@H]3CCNC3=O)n2n1` [Example 349, (3R)-3-{[2-(2-methylthiophen-3-yl)[1,2,4]triazolo[1,5-c]quinazolin-5-yl]amino}pyrrolidin-2-one], the IC50 is 5.16e-08 M in assay [1] and 11.5 nM in assay [2] (mouse Hepa 1c1c7 cells).
As to `CCCCNC(=O)[C@@H](C)Nc1nc2c(C(F)(F)F)cccc2c2nc(-c3cnn(C)c3)nn12` [Example 751, N-butyl-N^2-[2-(1-methyl-1H-pyrazol-4-yl)-7-(trifluoromethyl)[1,2,4]triazolo[1,5-c]quinazolin-5-yl]-D-alaninamid], the IC50 in assay [1] was 1.47e-08 M; in assay [2] (mouse Hepa 1c1c7 cells), 54.7 nM.
For the compound `CCn1cc(-c2nc3c4cccc(S(C)(=O)=O)c4nc(N[C@@H]4CCCCNC4=O)n3n2)c(C)n1` [Example 847, (3R)-3-{[2-(1-ethyl-3-methyl-1H-pyrazol-4-yl)-7-(methanesulfonyl)[1,2,4]triazolo[1,5-c]quinazolin-5-yl]amino}azepan-2-one], the IC50 is 3.02e-09 M in assay [1] (firefly luciferase reporter) and 60.1 nM in assay [2] (setting [3]).
With `CCCCNC(=O)[C@H](C)Nc1nc2ccccc2c2nc(-c3ccc(Cl)cc3OC(F)F)nn12` [Example 533, N-butyl-N^2-{2-[4-chloro-2-(difluoromethoxy)phenyl][1,2,4]triazolo[1,5-c]quinazolin-5-yl}alaninamide], the IC50 in assay [1] was 3.72e-09 M; in assay [2] (mouse Hepa 1c1c7 cells) it was 3.94 nM.
In the case of `COc1ccc(-c2nc3c4cccc(Br)c4nc(N[C@@H](C(=O)NCCN4CCN(C)CC4)C(C)C)n3n2)cc1` [Example 924, N^2-[7-bromo-2-(4-methoxyphenyl)[1,2,4]triazolo[1,5-c]quinazolin-5-yl]-N-[2-(4-methylpiperazin-1-yl)ethyl]-D-valinamide], the IC50 in assay [1] (firefly luciferase reporter) is 6.71e-09 M; in assay [2] (setting [3]), 3.8 nM.
Consider `Cn1cc(-c2nc3c4cccc(C#N)c4nc(N[C@@H]4CCCCNC4=O)n3n2)cn1` [Example 403, 2-(1-Methyl-1H-pyrazol-4-yl)-5-{[(3R)-2-oxoazepan-3-yl]amino}[1,2,4]triazolo[1,5-c]quinazoline-7-carbonitrile], for which the IC50 in assay [1] stood at 3.03e-08 M; in assay [2] (mouse Hepa 1c1c7 cells), 95.1 nM.
Consider `CS(=O)(=O)c1ccc(-c2nc3c4ccccc4nc(N[C@@H]4CCNC4=O)n3n2)cc1` [Example 373, (3R)-3-({2-[4-(methanesulfonyl)phenyl][1,2,4]triazolo[1,5-c]quinazolin-5-yl}amino)pyrrolidin-2-one], for which the figures for the IC50 in assay [1] and in assay [2] (mouse Hepa 1c1c7 cells) were 6.38e-07 M and 514 nM, respectively.
With `CC[C@H](Nc1nc2ccccc2c2nc(-c3ccc(OC)cc3C(F)(F)F)nn12)C(N)=O` [Example 514, (2S)-2-({2-[4-methoxy-2-(trifluoromethyl)phenyl][1,2,4]triazolo[1,5-c]quinazolin-5-yl}amino)butanamide], the IC50 in assay [1] was over 2e-05 M; in assay [2] (mouse Hepa 1c1c7 cells) it was 188 nM.
For the compound `COc1ccc(-c2nc3c4cccc(Br)c4nc(N[C@@H]4CNCCNC4=O)n3n2)cc1` [Example 270, (6R)-6-{[7-bromo-2-(4-methoxyphenyl)[1,2,4]triazolo[1,5-c]quinazolin-5-yl]amino}-1,4-diazepan-5-one], the IC50 in assay [1] came out at 7.93e-10 M; in assay [2] (mouse Hepa 1c1c7 cells) it was 0.946 nM.
As for `COc1cccc(-c2nc3c4ccccc4nc(N[C@H](CO)C(=O)O)n3n2)c1` [Example 91, N-[2-(3-methoxyphenyl)[1,2,4]triazolo[1,5-c]quinazolin-5-yl]-D-serine], the IC50 is over 2e-05 M in assay [1] and over 20000 nM in assay [2] (mouse Hepa 1c1c7 cells).
Turning to `CN(C)c1cccc2c1nc(N[C@@H]1CCCCNC1=O)n1nc(-c3cnn(C)c3)nc21` [Example 828, (3R)-3-{[7-(dimethyalmino)-2-(1-methyl-1H-pyrazol-4-yl)[1,2,4]triazolo[1,5-c]quinazolin-5-yl]amino}azepan-2-one], the IC50 in assay [1] (firefly luciferase reporter) turned out to be 1.78e-07 M; in assay [2] (setting [3]), 13500 nM.
In the case of `O=C1NCCCC[C@H]1Nc1nc2ccccc2c2nc(-c3cnn(CC4CC4)c3)nn12` [Example 602, (3R)-3-({2-[1-(cyclopropylmethyl)-1H-pyrazol-4-yl][1,2,4]triazolo[1,5-c]quinazolin-5-yl}amino)azepan-2-one], the IC50 amounted to 6.81e-09 M in assay [1] and 2.69 nM in assay [2] (mouse Hepa 1c1c7 cells).
As for `CC(C)n1cc(-c2nc3c4cccc(F)c4nc(N[C@@H]4CCCCNC4=O)n3n2)cn1` [Example 836], the half-inhibitory concentration (IC50) stood at 4.19e-09 M in assay [1] (firefly luciferase reporter) and 4.95 nM in assay [2] (setting [3]).
In the case of `COc1ccc(-c2nc3c4cccc(C(F)(F)F)c4nc(N[C@@H]4CCCCNC4=O)n3n2)cc1` [Example 204, (3R)-3-{[2-(4-methoxyphenyl)-7-(trifluoromethyl)[1,2,4]triazolo[1,5-c]quinazolin-5-yl]amino}azepan-2-one], the IC50 in assay [1] is 1.15e-09 M; in assay [2] (mouse Hepa 1c1c7 cells) it was 1.02 nM.
Taken in the same sequence, the figures for `Cc1cscc1-c1nc2c3ccccc3nc(N[C@H]3CCCCNC3=O)n2n1` [Example 539, (3S)-3-{[2-(4-methylthiophen-3-yl)[1,2,4]triazolo[1,5-c]quinazolin-5-yl]amino}azepan-2-one] were 6.16e-08 M and 7.71 nM.
